Laboratory results: patent publication US10538561B2, “Peptide for treating inflammatory diseases” (priority 2015, dated 2020)
Marks after values point to notes of the source that are not given here.

How the values were obtained:
[1] = test system: Human Keratinocytes (HaCaT); experiment: DNA fragmentation assay in HaCaT; type: cell-based; settings: 48 h
Method: Cells were lysed and fragmented DNA was precipitated using PEG/NaCl solution. The fragmented DNA was incubated with 0.2 μg/ml of Hoechst 33258 dye and fluorescence was read at 360 ex/460 em. End point: Percentage induction of DNA fragmentation with respect to untreated Positive control. Anthralin. IS 181 led to induction of DNA fragmentation in HaCaT cells at all the concentrations tested except at 100 μg/ml. […] The overall effect of IS 181 on induction of DNA fragmentation with respect to untreated in HaCaT cells ranged from −18.8% to 83.3%. (FIG. 8 and Table-6).

[2] = test system: Human Keratinocytes (HaCaT); experiment: Cell viability (MTT assay) in HaCaT; type: cell-based; settings: for IC50 value / cytotoxicity: HaCaT
Method: (§1) Cell Lines/Cells: Human Keratinocytes (HaCaT); Human melanoma (SK-MEL-28); Human PBMCs. Test Item: IS181 Treatment regimen: Single addition—24 h, ^#Multiple additions (3)−72 h; Concentration range: 1 ng/ml-2 mg/ml (triplicate wells); Sera Condition: […] Method of estimation: MTT assay. […] Positive control: Triton-X-100, Doxorubicin Hydrochloride.

[3] = Cell viability (MTT assay) in HaCaT; type: cell-based, Human; settings: human, HaCaT keratinocytes, HaCaT, 1% FBS
Method: as §1

[4] = test system: HaCaT (Human keratinocyte); experiment: LDH enzyme release assay; type: cell-based
Method: For testing Apoptosis the Human Keratinocytes (HaCaT) cell line has been employed. The growth conditions are DMEM containing 1% FBS. […] Test concentration range is IS181 is tested at the highest (Qualitative analysis) effective concentrations selected on the basis of Quantitative JC-1 assay. The method of estimation is Mitochondrial membrane depolarization by JC-1 assay (Early apoptosis), LDH enzyme release (Necrosis). Treatment regimen & time points are JC-1 assay—Single addition, 20 h; LDH assay—Single addition, 24 h; Positive control: Triton-X-100, Doxorubicin-hydrochloride
End-point: Percentage increase in LDH activity in treated cells with respect to untreated.

[5] = test system: Caspase-3 enzyme; experiment: Caspase-3 assay; type: cell-based, Human; settings: HaCaT, 48 h
Method: Cell lines: Human Keratinocytes (HaCaT); Test Item (TI): IS 181; Treatment regimen: Multiple additions (2)—48 hours; Concentration range: 100 μg/ml to 5000 μg/ml (Duplicate wells); Sera Condition: Medium containing 1% FBS. […] Cells were lysed and protein was estimated. The above lysates were processed further for Caspase-3 enzyme activity assay using colorimetric based method. Percentage induction of Caspase-3 enzyme activation with respect to untreated; Positive control: Anthralin. IS 181 led to induction of Caspase-3 enzyme activation in HaCaT cells at all the concentrations tested except at 100 μg/ml. […] (FIGS. 7A-7B)

[6] = test system: Human Keratinocytes (HaCaT); experiment: In vitro combination Anthralin and IS 181 (MTT); type: cell-based; settings: 72 h
Method: (§2) Percentage cytotoxicity was determined using MTT assay.

[7] = In vitro combination Anthralin and IS 181 (MTT); type: cell-based, Human; settings: human, HaCaT keratinocytes, read-out: percent inhibition of cell viability/cytotoxicity
Method: as §2

[8] = test system: IL-6; experiment: LPS stimulated IL-6 secretion in RAW264.7; type: cell-based, Mouse; settings: for IL-6 % decrease with respect to LPS / IL-6 Conc (pg/ml): RAW264.7 + LPS, 24 h
Method: Effect on pro-inflammatory cytokines against LPS stimulation: TNF-α; IL-6; IL-1-β: Cell lines: Murine macrophage cell line (RAW264.7); test item: IS181; experimental steps: pretreatment of cells with TI for 2 hours; stimulation with LPS (100 ng/ml) for 24 hours; supernatant collection for cytokine analysis; concentration range: o.1 μg/ml-500 μg/ml (duplicate wells); Cytokines: TNF-α; IL-6; IL-1-β; Method of estimating cytokines: ELISA; positive control: dexamethasone.
Cell line: RAW264.7 (Mouse macrophages); TI treatment regimen: Pretreatment for 2 h; TI Concentration range: 0.1 μg/ml-500 μg/ml (duplicate wells); LPS stimulation: 100 ng/ml; Time point for supernatants collection: 24 h; Method of estimation: ELISA; Positive control: Dexamethasone

- increase in LDH enzyme activity with respect to untreated ([4]; 750 μg/ml to 2 mg/ml): ≥ 90%
- % Increase with respect to untreated (LDH) ([4]; 24 h, 400 μg/ml): 26.03%
- LDH Activity (mU/ml) ([4]; 24 h, 400 μg/ml): 79.73 mU/ml
- % Increase with respect to untreated (LDH) ([4]; 24 h, 475 μg/ml): ***49.73%
- LDH Activity (mU/ml) ([4]; 24 h, 475 μg/ml): 94.71 mU/ml
- % Increase with respect to untreated (LDH) ([4]; 24 h, 500 μg/ml): **34.76%
- LDH Activity (mU/ml) ([4]; 24 h, 500 μg/ml): 85.25 mU/ml
- % Increase with respect to untreated (LDH) ([4]; 24 h, 750 μg/ml): ***90.43%
- LDH Activity (mU/ml) ([4]; 24 h, 750 μg/ml): 120.47 mU/ml
- % Increase with respect to untreated (LDH) ([4]; 24 h, 1000 μg/ml): ***116.28%
- LDH Activity (mU/ml) ([4]; 24 h, 1000 μg/ml): 136.82 mU/ml
- % Increase with respect to untreated (LDH) ([4]; 24 h, 2000 μg/ml): ***119.09%
- LDH Activity (mU/ml) ([4]; 24 h, 2000 μg/ml): 138.60 mU/ml
- increase in LDH enzyme release with respect to untreated ([4]; 24 h, concentrations around IC50 value): > 50%
- Percentage induction of caspase-3 enzyme activation with respect to untreated ([5]; 100 μg/ml): −20.37
- Percentage induction of caspase-3 enzyme activation with respect to untreated ([5]; 500 μg/ml): 7.41
- Percentage induction of caspase-3 enzyme activation with respect to untreated ([5]; 1000 μg/ml): 29.63
- Percentage induction of caspase-3 enzyme activation with respect to untreated ([5]; 2000 μg/ml): 50
Substance: H-WVQRVVEKFLK-OH [IS181, H-Trp-Val-Gln-Arg-Val-Val-Glu-Lys-Phe-Leu-Lys-OH]
- % induction of DNA fragmentation ([1]; 100 μg/ml): −18.8%
- overall effect on induction of DNA fragmentation with respect to untreated ([1]; 100 μg/ml to 5000 μg/ml): −18.8% to 83.3%
- % induction of DNA fragmentation ([1]; 500 μg/ml): 35.4%
- % induction of DNA fragmentation ([1]; 1000 μg/ml): 35.4%
- % induction of DNA fragmentation ([1]; 2000 μg/ml): 27.1%
- % induction of DNA fragmentation ([1]; 5000 μg/ml): 83.3%
- IC50 ([2]; 24 h): 470 µM
- Selectivity Index -IC50 (PBMC)/IC50 (HaCaT/SK-MEL-28 cells) ([2]; 24 h): 3
- selectivity of cytotoxic activity against human keratinocytes ([2]; 24 h): selective cytotoxic activity
- IC50 ([2]; 72 h): 290 µM
- Selectivity Index -IC50 (PBMC)/IC50 (HaCaT/SK-MEL-28 cells) ([2]; 72 h): 2
- IC50 value ([2]; 24 h): 670 µg/mL
- cytotoxicity ([2]; 24 h, at concentrations 2 mg/ml): 87%-91%
- IC50 value ([2]; 72 h): 420 µg/mL
- cytotoxicity ([2]; 72 h, concentrations ≥0.5 mg/ml): 58%-90%
- cytotoxicity at 24 h, 0.1 μg/ml ([3]; 24 h, 0.1 μg/ml): -1.4%
- cytotoxicity at 24 h, 0.5 μg/ml ([3]; 24 h, 0.5 μg/ml): -4.61%
- cytotoxicity at 24 h, 1 μg/ml ([3]; 24 h, 1 μg/ml): 4.88%
- cytotoxicity at 24 h, 5 μg/ml ([3]; 24 h, 5 μg/ml): 8.43%
- cytotoxicity at 24 h, 10 μg/ml ([3]; 24 h, 10 μg/ml): 5.75%
- cytotoxicity at 24 h, 50 μg/ml ([3]; 24 h, 50 μg/ml): 1.79%
- cytotoxicity at 24 h, 100 μg/ml ([3]; 24 h, 100 μg/ml): -0.58%
- cytotoxicity at 24 h, 500 μg/ml ([3]; 24 h, 500 μg/ml): 18.9%
- cytotoxicity at 24 h, 1000 μg/ml ([3]; 24 h, 1000 μg/ml): 87.8%
- cytotoxicity at 24 h, 2000 μg/ml ([3]; 24 h, 2000 μg/ml): 91.3%
- cytotoxicity at 72 h, 0.1 μg/ml ([3]; 72 h, 0.1 μg/ml): -56.2%
- cytotoxicity at 72 h, 0.5 μg/ml ([3]; 72 h, 0.5 μg/ml): -75.4%
- cytotoxicity at 72 h, 1 μg/ml ([3]; 72 h, 1 μg/ml): -66.1%
- cytotoxicity at 72 h, 5 μg/ml ([3]; 72 h, 5 μg/ml): -37.5%
- cytotoxicity at 72 h, 10 μg/ml ([3]; 72 h, 10 μg/ml): -44.5%
- cytotoxicity at 72 h, 50 μg/ml ([3]; 72 h, 50 μg/ml): -33%
- cytotoxicity at 72 h, 100 μg/ml ([3]; 72 h, 100 μg/ml): -42.5%
- cytotoxicity at 72 h, 500 μg/ml ([3]; 72 h, 500 μg/ml): 58.5%
- cytotoxicity at 72 h, 1000 μg/ml ([3]; 72 h, 1000 μg/ml): 91%
- cytotoxicity at 72 h, 2000 μg/ml ([3]; 72 h, 2000 μg/ml): 89.4%
- IC50 value of IS 181 ([6]; Anthralin 0 μM): 695.50 µg/mL
- IC50 value of IS 181 ([6]; with Anthralin 0.01 μM): 872.80 µg/mL
- IC50 value of IS 181 ([6]; with Anthralin 0.05 μM): 908.50 µg/mL
- IC50 value of IS 181 ([6]; with Anthralin 0.1 μM): 677.60 µg/mL
- cytotoxicity at 72 h, 10 μg/ml ([7]; IS 181 10 μg/ml alone): -10.4%
- cytotoxicity at 72 h, 50 μg/ml ([7]; IS 181 50 μg/ml alone): -4.81%
- cytotoxicity at 72 h, 100 μg/ml ([7]; IS 181 100 μg/ml alone): 8.16%
- cytotoxicity at 72 h, 500 μg/ml ([7]; IS 181 500 μg/ml alone): 39.4%
- cytotoxicity at 72 h, 1000 μg/ml ([7]; IS 181 1000 μg/ml alone): 62.4%
- cytotoxicity at 72 h, 2000 μg/ml ([7]; IS 181 2000 μg/ml alone): 81.4%
- cytotoxicity at 72 h, 5000 μg/ml ([7]; IS 181 5000 μg/ml alone): 94.2%
- IL-6 inhibition as compared to LPS stimulated levels ([8]; RAW264.7): good extent of TNF-α and IL-6 inhibition
- IL-6 % decrease with respect to LPS ([8]; 0.1 μ/ml): 57.2%
- IL-6 Conc (pg/ml) ([8]; 0.1 μ/ml): 908.7*** pg/ml
- IL-6 % decrease with respect to LPS ([8]; 1 μ/ml): 41.2%
- IL-6 Conc (pg/ml) ([8]; 1 μ/ml): 1248.3*** pg/ml
- IL-6 % decrease with respect to LPS ([8]; 5 μ/ml): 26.3%
- IL-6 Conc (pg/ml) ([8]; 5 μ/ml): 1565.9*** pg/ml
- IL-6 % decrease with respect to LPS ([8]; 10 μ/ml): 76.4%
- IL-6 Conc (pg/ml) ([8]; 10 μ/ml): 501.5*** pg/ml
- IL-6 % decrease with respect to LPS ([8]; 100 μ/ml): 35.4%
- IL-6 Conc (pg/ml) ([8]; 100 μ/ml): 1371.8*** pg/ml
- IL-6 % decrease with respect to LPS ([8]; 500 μ/ml): 68.5%
- IL-6 Conc (pg/ml) ([8]; 500 μ/ml): 669.1*** pg/ml
- inhibition of IL-6 secretion as compared to LPS treated cells ([8]; RAW264.7, 0.1 μg/ml-500 μg/ml): 26.3%-76.4%
